{"source": "ChEMBL document CHEMBL4251699", "about": "“In Search of the Optimal Macrocyclization Site for Neurotensin” (ACS Med Chem Lett, 2018)", "note": "Numbered stars: 1 amine (or outer) side, 2 acyl side, 3 side chain; on linkers, the order of the positions; unused ones are H or OH. Bridge positions count the residues as written; N and C are the ends. Square brackets hold non-standard residues; d marks the D form. Peptide text beside a SMILES is read from it. * marks the point of attachment. X1 = O=C([C@H](Cc1ccc(O)c(CC=[*:3])c1)N[*:1])[*:2]; X3 = C=CCc1cc(C[C@H](N[*:1])C(=O)[*:2])ccc1O; Ser(allyl) = C=CCOC[C@H](N)C(=O)O; AllylGly = C=CC[C@H](N)C(=O)O; X2 = C=CCCCCCCC(=O)*", "data": [{"molecular_target": "T1, Neurotensin receptor type 1 (Homo sapiens, UniProt P30989)", "T1 sequence (P30989 whole entry)": "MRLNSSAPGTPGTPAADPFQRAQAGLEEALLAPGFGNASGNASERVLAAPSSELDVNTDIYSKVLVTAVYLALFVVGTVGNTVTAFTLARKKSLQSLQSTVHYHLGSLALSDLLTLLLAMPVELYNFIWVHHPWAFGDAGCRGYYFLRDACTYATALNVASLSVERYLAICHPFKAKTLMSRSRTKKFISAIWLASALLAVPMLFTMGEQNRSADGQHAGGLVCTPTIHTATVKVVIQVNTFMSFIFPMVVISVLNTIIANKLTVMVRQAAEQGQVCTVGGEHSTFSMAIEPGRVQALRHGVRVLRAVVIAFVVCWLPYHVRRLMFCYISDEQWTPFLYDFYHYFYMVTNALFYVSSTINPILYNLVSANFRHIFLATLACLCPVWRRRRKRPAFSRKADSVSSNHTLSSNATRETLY", "assay": "Displacement of 125I-[Tyr3]-NT from human NTS1 receptor expressed in CHO-K1 cell membranes after 60 mins by gamma-counting method", "units": {"IC50": "µM"}, "values": [{"smiles": "CC[C@H](C)[C@H](NC(=O)[C@@H]1Cc2ccc(O)c(c2)CC=CCCCCCCC(=O)N[C@@H](CCCCN)C(=O)N2CCC[C@H]2C(=O)N1)C(=O)N[C@@H](CC(C)C)C(=O)O", "IC50": 0.4}, {"smiles": "CC(C)C[C@H](NC(=O)[C@@H]1CC=CC[C@H](N)C(=O)N[C@@H](CCCCN)C(=O)N2CCC[C@H]2C(=O)N[C@@H](Cc2ccc(O)cc2)C(=O)N1)C(=O)O", "IC50": 17}, {"smiles": "C=CC[C@H](NC(=O)[C@H](Cc1ccc(O)cc1)NC(=O)[C@@H]1CCCN1C(=O)[C@H](CCCCN)NC(=O)[C@@H](N)CC=C)C(=O)N[C@@H](CC(C)C)C(=O)O", "note": "(H-[AllylGly]KPY[AllylGly]L-OH)", "IC50": 1.7}, {"smiles": "CC[C@H](C)[C@H](NC(=O)[C@@H]1Cc2ccc(O)c(c2)CC=CCOC[C@H](NC(=O)[C@@H](N)CCCCN)C(=O)N2CCC[C@H]2C(=O)N1)C(=O)N[C@@H](CC(C)C)C(=O)O", "note": "(H-K[Ser(allyl)]P[X1]IL-OH; staple 2-4)", "IC50": 10.3}, {"smiles": "CC(C)C[C@H](NC(=O)[C@@H]1COCC=CCOC[C@H](N)C(=O)N[C@@H](CCCCN)C(=O)N2CCC[C@H]2C(=O)N[C@@H](Cc2ccc(O)cc2)C(=O)N1)C(=O)O", "note": "(H-[Ser(allyl)]KPY[Ser(allyl)]L-OH; staple 1-5)", "IC50": "> 100"}, {"smiles": "C=CCCCCCCC(=O)N[C@@H](CCCCN)C(=O)N1CCC[C@H]1C(=O)N[C@@H](Cc1ccc(O)c(CC=C)c1)C(=O)N[C@H](C(=O)N[C@@H](CC(C)C)C(=O)O)[C@@H](C)CC", "note": "(X2-KP[X3]IL-OH)", "IC50": 1.4}, {"smiles": "CC(C)C[C@H](NC(=O)[C@H]1CC=CC[C@H](N)C(=O)N[C@@H](CCCCN)C(=O)N2CCC[C@H]2C(=O)N[C@@H](Cc2ccc(O)cc2)C(=O)N1)C(=O)O", "IC50": 14.3}, {"smiles": "CC(C)C[C@H](NC(=O)[C@@H]1CC=CC[C@@H](N)C(=O)N[C@@H](CCCCN)C(=O)N2CCC[C@H]2C(=O)N[C@@H](Cc2ccc(O)cc2)C(=O)N1)C(=O)O", "IC50": 10}, {"smiles": "CC(C)C[C@H](NC(=O)[C@H]1CC=CC[C@@H](N)C(=O)N[C@@H](CCCCN)C(=O)N2CCC[C@H]2C(=O)N[C@@H](Cc2ccc(O)cc2)C(=O)N1)C(=O)O", "IC50": 19.8}, {"smiles": "CC(C)C[C@H](NC(=O)[C@@H]1COCC=CCc2cc(ccc2O)C[C@H](NC(=O)[C@@H]2CCCN2C(=O)[C@@H](N)CCCCN)C(=O)N1)C(=O)O", "IC50": 29.8}, {"smiles": "CC[C@H](C)[C@H](NC(=O)[C@@H]1Cc2ccc(O)c(c2)CC=CC[C@H](NC(=O)[C@@H](N)CCCCN)C(=O)N2CCC[C@H]2C(=O)N1)C(=O)N[C@@H](CC(C)C)C(=O)O", "note": "(H-K[AllylGly]P[X1]IL-OH; staple 2-4)", "IC50": 7.6}, {"smiles": "CC[C@H](C)[C@@H]1NC(=O)[C@H](Cc2ccc(O)cc2)NC(=O)[C@@H]2CCCN2C(=O)[C@@H](NC(=O)[C@@H](N)CCCCN)CC=CC[C@@H](C(=O)O)NC1=O", "note": "(H-K[AllylGly]PYI[AllylGly]-OH; staple 2-6)", "IC50": "> 100"}]}, {"tested_on": "not listed separately", "assay": "Half life in rat plasma by UPLC-MS analysis", "format": "ADME, cell-free", "units": {"half-life": "h"}, "values": [{"smiles": "CC[C@H](C)[C@H](NC(=O)[C@H](Cc1ccc(O)cc1)NC(=O)[C@@H]1CCCN1C(=O)[C@H](CCCNC(=N)N)NC(=O)[C@@H](N)CCCNC(=N)N)C(=O)N[C@@H](CC(C)C)C(=O)O", "half-life": 0.05}, {"smiles": "CC[C@H](C)[C@H](NC(=O)[C@@H]1Cc2ccc(O)c(c2)CC=CCCCCCCC(=O)N[C@@H](CCCCN)C(=O)N2CCC[C@H]2C(=O)N1)C(=O)N[C@@H](CC(C)C)C(=O)O", "half-life": 12}]}, {"molecular_target": "T1, Neurotensin receptor type 1", "assay": "Agonist activity at GFP10-tagged human NTS1 expressed in CHO-K1 cells assessed as Rluc2-fused beta-arrestin2 recruitment after 20 mins by BRET assay", "format": "functional, cell-based", "units": {"EC50": "µM"}, "values": [{"smiles": "CC[C@H](C)[C@H](NC(=O)[C@@H]1Cc2ccc(O)c(c2)CC=CCCCCCCC(=O)N[C@@H](CCCCN)C(=O)N2CCC[C@H]2C(=O)N1)C(=O)N[C@@H](CC(C)C)C(=O)O", "EC50": 1.37}]}]}
